Target: human Nav1.7 (Homo sapiens (Human), UniProt Q15858)
Test: FRET-based membrane potential assay, recombinant human sodium channel Nav1.7
Format: cell-based
Conditions: HEK293 cells stably expressing recombinant human Nav1.7; depolarization with veratridine (EC80) + scorpion venom
Procedure: FRET-Based Membrane Potential Assays.
Recombinant, Human Sodium Channel, Nav1.7.
Two days prior to the experiment, frozen HEK293 cells stably expressing recombinant human Nav1.7 were quickly thawed and plated at 25,000 cells/well in growth medium [DMEM (Invitrogen #11965) with 10% HI FBS (Invitrogen #10082), 2 mM glutamine, 100 units/mL penicillin, 0.1 mg/mL streptomycin (PSG, Sigma #G1146), and 500 μg/mL Geneticin (Invitrogen #10131)] in black-walled, clear-bottom 384-well poly-D-lysine-coated assay plates (Greiner Bio-One, Frickenhausen, Germany) and incubated in a humidified 5% CO2 incubator at 37° C. On the day of the assay, medium was removed by aspiration, and cells were washed with assay buffer [HBSS (Invitrogen, Carlsbad, Calif.) containing 20 mM HEPES (Invitrogen, Carlsbad, Calif.)]. After washing, 30 μL assay buffer containing the fluorescent voltage-sensor probe CC2-DMPE (Invitrogen, Carlsbad, Calif.) at 20 μM and 0.01% pluronic F-127 (Invitrogen, Carlsbad, Calif.) was added to the cells. Cells were incubated for 40 minutes at room temperature in the dark. Following the incubation, the cells were washed and 30 μL assay buffer containing 2.5 μM DiSBAC2(3) substrate (Invitrogen, Carlsbad, Calif.) and 0.5 mM VABSC-1 (Invitrogen, Carlsbad, Calif.) was added to the cells. The cells were incubated for 90 minutes at room temperature in the dark. Fluorescence readings were made using a FLIPR®^TETRA (Molecular Devices, Sunnyvale Calif.) equipped with voltage-sensor probe optics. At the start of each experiment the optimal (EC80) concentration of depolarizing agent (veratridine) was determined by testing a dilution curve of assay buffer containing veratridine (Sigma-Aldrich, St. Louis, Mo.) and 1 mg/mL scorpion venom (SVqq, from Leiurus quinquestriatus; Sigma-Aldrich, St. Louis, Mo.). […] Test compounds in the daughter plate were diluted to (˜3×) solutions in assay buffer immediately before assaying. Using the FLIPR®^TETRA, 20 μL of the (3×) compound solutions were first added to the cells, then 20 μL of depolarizing solution (3×EC80 veratridine+SVqq) were added 3 minutes later to activate the channel. Changes in fluorescence were measured at wavelengths of 440-480 nm and 565-625 nm over the course of the experimental run. Membrane depolarization was expressed as a ratio of the maximum F440-480 nm/F565-625 nm reading above average baseline F440-480 nm/F565-625 nm reading. IC50 values were calculated from curve fits of the ratio data using a four-parameter logistic Hill equation (Accelrys Assay Explorer 3.3 Client, Accelrys, San Diego, Calif.) with percent inhibition plotted against compound concentration.

Chain of human Nav1.7 (Q15858 whole entry): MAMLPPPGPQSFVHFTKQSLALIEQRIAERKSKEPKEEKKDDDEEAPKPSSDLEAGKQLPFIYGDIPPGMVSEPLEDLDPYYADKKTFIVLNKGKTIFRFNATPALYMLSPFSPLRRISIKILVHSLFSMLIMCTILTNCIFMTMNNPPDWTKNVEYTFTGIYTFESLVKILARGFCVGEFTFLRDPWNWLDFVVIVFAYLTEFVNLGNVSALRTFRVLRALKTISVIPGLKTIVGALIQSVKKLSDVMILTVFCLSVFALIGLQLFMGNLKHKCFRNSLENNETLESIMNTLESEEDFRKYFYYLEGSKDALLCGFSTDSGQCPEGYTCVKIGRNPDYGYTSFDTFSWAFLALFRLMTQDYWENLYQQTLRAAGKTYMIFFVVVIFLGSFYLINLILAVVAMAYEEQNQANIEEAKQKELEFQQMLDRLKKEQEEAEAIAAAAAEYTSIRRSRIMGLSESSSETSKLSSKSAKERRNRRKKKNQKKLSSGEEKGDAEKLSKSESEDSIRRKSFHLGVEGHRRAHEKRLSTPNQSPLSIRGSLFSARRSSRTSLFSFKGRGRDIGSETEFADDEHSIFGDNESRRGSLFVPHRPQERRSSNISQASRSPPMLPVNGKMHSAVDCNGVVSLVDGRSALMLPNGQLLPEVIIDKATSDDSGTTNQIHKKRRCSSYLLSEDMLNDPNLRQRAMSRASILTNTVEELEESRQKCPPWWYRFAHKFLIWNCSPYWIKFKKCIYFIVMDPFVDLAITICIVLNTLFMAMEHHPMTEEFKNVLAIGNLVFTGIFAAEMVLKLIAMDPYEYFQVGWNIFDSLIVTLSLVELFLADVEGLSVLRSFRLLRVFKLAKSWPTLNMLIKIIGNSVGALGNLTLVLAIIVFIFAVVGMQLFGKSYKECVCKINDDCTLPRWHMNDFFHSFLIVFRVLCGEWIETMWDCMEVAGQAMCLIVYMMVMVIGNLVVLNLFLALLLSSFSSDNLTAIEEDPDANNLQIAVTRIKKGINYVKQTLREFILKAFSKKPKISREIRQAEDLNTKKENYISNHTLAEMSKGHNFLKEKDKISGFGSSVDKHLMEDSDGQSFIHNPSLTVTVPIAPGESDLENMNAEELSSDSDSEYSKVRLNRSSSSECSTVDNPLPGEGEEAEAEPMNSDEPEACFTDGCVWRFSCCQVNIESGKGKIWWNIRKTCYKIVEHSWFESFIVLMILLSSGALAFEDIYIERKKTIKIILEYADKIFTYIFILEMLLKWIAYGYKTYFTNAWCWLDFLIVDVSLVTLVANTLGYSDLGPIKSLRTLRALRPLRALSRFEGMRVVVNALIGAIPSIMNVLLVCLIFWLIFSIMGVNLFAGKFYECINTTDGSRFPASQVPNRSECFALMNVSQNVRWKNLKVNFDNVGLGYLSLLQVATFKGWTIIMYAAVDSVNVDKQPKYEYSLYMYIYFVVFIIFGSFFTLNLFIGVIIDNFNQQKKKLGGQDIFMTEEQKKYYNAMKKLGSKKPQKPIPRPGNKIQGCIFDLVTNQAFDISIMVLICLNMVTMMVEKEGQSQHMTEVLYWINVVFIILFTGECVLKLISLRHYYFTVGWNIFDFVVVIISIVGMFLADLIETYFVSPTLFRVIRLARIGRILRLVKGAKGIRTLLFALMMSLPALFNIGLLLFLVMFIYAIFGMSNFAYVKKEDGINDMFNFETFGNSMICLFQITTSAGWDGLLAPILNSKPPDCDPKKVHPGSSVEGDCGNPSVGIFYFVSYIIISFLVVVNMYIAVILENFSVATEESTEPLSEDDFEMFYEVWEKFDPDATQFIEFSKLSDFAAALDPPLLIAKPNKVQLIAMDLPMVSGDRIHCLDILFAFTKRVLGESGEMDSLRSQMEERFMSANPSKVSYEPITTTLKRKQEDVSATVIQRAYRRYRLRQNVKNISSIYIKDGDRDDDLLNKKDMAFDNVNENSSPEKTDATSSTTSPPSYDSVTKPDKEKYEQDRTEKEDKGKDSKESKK

Compound | IC50 [nM]
O=C1N(Cc2cc(C3CC3)on2)CCN1c1cccc2c1cnn2-c1ccccc1F [Example 252, 1-[(5-cyclopropyl-1,2-oxazol-3-yl)methyl]-3-[1-(2-fluorophenyl)-1H-indazol-4-yl]imidazolidin-2-one] | 1760
CC(C)(C)C(=O)N1CCN(c2cccc3c2cnn3-c2ccccc2F)C1=O [Example 60, 1-(2,2-dimethylpropanoyl)-3-[1-(2-fluorophenyl)-1H-indazol-4-yl]imidazolidin-2-one] | 1990
O=C1N(Cc2cccnc2)CCN1c1cccc2c1cnn2-c1ccccc1F [Example 198, 1-[1-(2-fluorophenyl)-1H-indazol-4-yl]-3-(pyridin-3-ylmethyl)imidazolidin-2-one] | 1240
O=C(CN1CCN(c2cccc3c2cnn3-c2ccccc2F)C1=O)N1CC(F)C(F)C1 (stereo not shown) [Example 206, 1-[2-(3,4-difluoropyrrolidin-1-yl)-2-oxoethyl]-3-[1-(2-fluorophenyl)-1H-indazol-4-yl]imidazolidin-2-one] | 1060
O=C(CC1CCCC1)CN1CCN(c2cccc3c2cnn3-c2ccccc2F)C1=O [Example 134, 1-(3-cyclopentyl-2-oxopropyl)-3-[1-(2-fluorophenyl)-1H-indazol-4-yl]imidazolidin-2-one] | 1260
CC(C)C1CCCN1C(=O)CN1CCN(c2cccc3c2cnn3-c2ccccc2F)C1=O (stereo not shown) [Example 116, 1-[1-(2-fluorophenyl)-1H-indazol-4-yl]-3-[2-(2-isopropylpyrrolidin-1-yl)-2-oxoethyl]imidazolidin-2-one] | 821
O=C1N(c2cccc3c2cnn3-c2ccccc2F)CCN1S(=O)(=O)C1CCCCC1 [Example 78, 1-(cyclohexylsulfonyl)-3-[1-(2-fluorophenyl)-1H-indazol-4-yl]imidazolidin-2-one] | 2940
O=C(CN1CCN(c2cccc3c2cnn3-c2ccccc2F)C1=O)C1CCCC1 [Example 144, 1-(2-cyclopentyl-2-oxoethyl)-3-[1-(2-fluorophenyl)-1H-indazol-4-yl]imidazolidin-2-one] | 2100
CCS(=O)(=O)N1CCN(c2cccc3c2cnn3-c2ccccc2F)C1=O [Example 83, 1-(ethylsulfonyl)-3-[1-(2-fluorophenyl)-1H-indazol-4-yl]imidazolidin-2-one] | 20000
CC(C)(O)CN1CCN(c2cccc3c2cnn3-c2ccccc2F)C1=O [Example 64, 1-[1-(2-fluorophenyl)-1H-indazol-4-yl]-3-(2-hydroxy-2-methylpropyl)imidazolidin-2-one] | 9520
O=C1N(CC2CCCO2)CCN1c1cccc2c1cnn2-c1ccccc1F (stereo not shown) [Example 182, 1-[1-(2-fluorophenyl)-1H-indazol-4-yl]-3-(tetrahydrofuran-2-ylmethyl)imidazolidin-2-one] | 2620
O=C(CN1CCN(c2cccc3c2cnn3-c2ccccc2F)C1=O)N1CCC2(C1)OCCO2 [Example 102, 1-[2-(1,4-dioxa-7-azaspiro[4.4]non-7-yl)-2-oxoethyl]-3-[1-(2-fluorophenyl)-1H-indazol-4-yl]imidazolidin-2-one] | 3490
COCc1nc(CN2CCN(c3cccc4c3cnn4-c3ccccc3F)C2=O)cs1 [Example 254, 1-[1-(2-fluorophenyl)-1H-indazol-4-yl]-3-{[2-(methoxymethyl)-1,3-thiazol-4-yl]methyl}imidazolidin-2-one] | 825
O=C1N(CC2CCO2)CCN1c1cccc2c1cnn2-c1ccccc1F (stereo not shown) [Example 223, 1-[1-(2-fluorophenyl)-1H-indazol-4-yl]-3-(oxetan-2-ylmethyl)imidazolidin-2-one] | 11200
CO[C@@H](CC(C)C)CN1CCN(c2cccc3c2cnn3-c2ccccc2F)C1=O [Example 215, 1-[1-(2-fluorophenyl)-1H-indazol-4-yl]-3-[(2S)-2-methoxy-4-methylpentyl]imidazolidin-2-one] | 1080
CC(C)CCC(=O)N1CCN(c2cccc3c2cnn3-c2ccccc2F)C1=O [Example 76, 1-[1-(2-fluorophenyl)-1H-indazol-4-yl]-3-(4-methylpentanoyl)imidazolidin-2-one] | 2290

From patent publication US9783527B2, “Indazole ureas and method of use” (AbbVie Inc., priority 2014, dated 2017)
